As usually defined, the EC50 is the concentration giving half of the maximal effect. Low readings indicate higher potency in that assay, high ones lower potency in that assay.

The values that follow come from patent US9409884B2 (Rigel Pharmaceuticals, Inc., priority 2012, dated 2016).

SMILES strings stand for the structures.

One test has as its target AMPK. Kind of test: AMPK activation, enzyme-linked immunosorbent assay. It counts as biochemical. The note with it: Table 9, compounds of Table 2. In short, it runs like this:
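Read-out: ELISA, used to detect compound-driven activation of AMPK.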
On to `NC(=O)c1ccc(CN2CCc3[nH]c4ccc(C(=O)NC5CCN(Cc6ccncc6)CC5)cc4c3C2)cc1` [Compound 2-45, 2-(4-carbamoylbenzyl)-N-(1-(pyridin-4-ylmethyl)piperidin-4-yl)-2,3,4,5-tetrahydro-1H-pyrido[4,3-b]indole-8-carboxamide], for which the EC50 is more than 100 µM.

`NC(=O)c1ccc(CN2CCc3[nH]c4ccc(C(=O)NC5CCN(C(=O)c6ccncc6)CC5)cc4c3C2)cc1` [Compound 2-46, 2-(4-carbamoylbenzyl)-N-(1-isonicotinoylpiperidin-4-yl)-2,3,4,5-tetrahydro-1H-pyrido[4,3-b]indole-8-carboxamide] gave an EC50 of more than 100 µM.

`NC(=O)c1ccc(CN2CCc3[nH]c4ccc(C(=O)NC5CCN(Cc6ccc(C(F)(F)F)cc6)CC5)cc4c3C2)cc1` [Compound 2-47, 2-(4-carbamoylbenzyl)-N-(1-(4-(trifluoromethyl)benzyl)piperidin-4-yl)-2,3,4,5-tetrahydro-1H-pyrido[4,3-b]indole-8-carboxamide]: the EC50 was 10 to 50 µM.

In turn, `NC(=O)c1ccc(CN2CCc3[nH]c4ccc(C(=O)NC5CCN(Cc6ccc(F)cc6)CC5)cc4c3C2)cc1` [Compound 2-48, 2-(4-carbamoylbenzyl)-N-(1-(4-fluorobenzyl)piperidin-4-yl)-2,3,4,5-tetrahydro-1H-pyrido[4,3-b]indole-8-carboxamide] showed an EC50 of more than 100 µM.

`NC(=O)c1ccc(CN2CCC(NC(=O)c3ccc4[nH]c5c(c4c3)CN(Cc3ccc(C(N)=O)cc3)CC5)CC2)cc1` [Compound 2-49, 2-(4-carbamoylbenzyl)-N-(1-(4-carbamoylbenzyl)piperidin-4-yl)-2,3,4,5-tetrahydro-1H-pyrido[4,3-b]indole-8-carboxamide] gave a 50% effective concentration (EC50) of more than 100 µM.

With `O=C(NC1CCN(Cc2ccncc2)CC1)c1ccc2[nH]c3c(c2c1)CN(Cc1ccc(C(F)(F)F)cc1)CC3` [Compound 2-50, N-(1-(pyridin-4-ylmethyl)piperidin-4-yl)-2-(4-(trifluoromethyl)benzyl)-2,3,4,5-tetrahydro-1H-pyrido[4,3-b]indole-8-carboxamide], the EC50 is less than 0.5 µM.

In the case of `O=C(NC1CCN(C(=O)c2ccncc2)CC1)c1ccc2[nH]c3c(c2c1)CN(Cc1ccc(C(F)(F)F)cc1)CC3` [Compound 2-51, N-(1-isonicotinoylpiperidin-4-yl)-2-(4-(trifluoromethyl)benzyl)-2,3,4,5-tetrahydro-1H-pyrido[4,3-b]indole-8-carboxamide], the EC50 fell in the range of 0.5 to 1 µM.

In turn, `NC(=O)c1ccc(CN2CCC(NC(=O)c3ccc4[nH]c5c(c4c3)CN(Cc3ccc(C(F)(F)F)cc3)CC5)CC2)cc1` [Compound 2-52, N-(1-(4-carbamoylbenzyl)piperidin-4-yl)-2-(4-(trifluoromethyl)benzyl)-2,3,4,5-tetrahydro-1H-pyrido[4,3-b]indole-8-carboxamide] displayed an EC50 of 1 to 5 µM.

`Cn1cnc(CN2CCC(NC(=O)c3ccc4[nH]c5c(c4c3)CN(Cc3ccc(C(F)(F)F)cc3)CC5)CC2)c1` [Compound 2-53, N-(1-((1-methyl-1H-imidazol-4-yl)methyl)piperidin-4-yl)-2-(4-(trifluoromethyl)benzyl)-2,3,4,5-tetrahydro-1H-pyrido[4,3-b]indole-8-carboxamide] came in with an EC50 of 10 to 50 µM.

Compound `O=C(NC1CCN(Cc2cocn2)CC1)c1ccc2[nH]c3c(c2c1)CN(Cc1ccc(C(F)(F)F)cc1)CC3` [Compound 2-54, N-(1-(oxazol-4-ylmethyl)piperidin-4-yl)-2-(4-(trifluoromethyl)benzyl)-2,3,4,5-tetrahydro-1H-pyrido[4,3-b]indole-8-carboxamide] showed an EC50 of less than 0.5 µM.

The test is the same for the next values; noted with them: Table 10, compounds of Table 3.
For `CC(C)(C)OC(=O)N1CCC(NC(=O)c2nc3ccc(OC4CCN(c5ccc(C(F)(F)F)cc5)CC4)cc3o2)CC1` [Compound 3-1, tert-butyl 4-(6-(1-(4-(trifluoromethyl)phenyl)piperidin-4-yloxy)benzo[d]oxazole-2-carboxamido)piperidine-1-carboxylate], the concentration for a half-maximal effect (EC50) was less than 0.1 µM.

As for `N#Cc1ccc(CN2CCC(NC(=O)c3nc4ccc(OC5CCN(c6ccc(C(F)(F)F)cc6)CC5)cc4o3)CC2)cc1` [Compound 3-2, N-(1-(4-cyanobenzyl)piperidin-4-yl)-6-(1-(4-(trifluoromethyl)phenyl)piperidin-4-yloxy)benzo[d]oxazole-2-carboxamide], the EC50 was less than 0.1 µM.

In turn, `O=C(NC1CCN(Cc2ccncc2)CC1)c1nc2ccc(OC3CCN(c4ccc(C(F)(F)F)cc4)CC3)cc2o1` [Compound 3-3, N-(1-(pyridin-4-ylmethyl)piperidin-4-yl)-6-(1-(4-(trifluoromethyl)phenyl)piperidin-4-yloxy)benzo[d]oxazole-2-carboxamide] returned an EC50 of less than 0.1 µM.

In turn, `O=C(NC1CCN(C(=O)c2ccc(F)cc2)CC1)c1nc2ccc(OC3CCN(c4ccc(C(F)(F)F)cc4)CC3)cc2o1` [Compound 3-4, N-(1-(4-fluorobenzoyl)piperidin-4-yl)-6-(1-(4-(trifluoromethyl)phenyl)piperidin-4-yloxy)benzo[d]oxazole-2-carboxamide] yielded an EC50 of less than 0.1 µM.

`O=C(NC1CCNCC1)c1nc2ccc(OC3CCN(c4ccc(C(F)(F)F)cc4)CC3)cc2o1` [Compound 3-5, N-(piperidin-4-yl)-6-(1-(4-(trifluoromethyl)phenyl)piperidin-4-yloxy)benzo[d]oxazole-2-carboxamide] showed an EC50 of 10 to 100 µM.

Turning to `N#Cc1ccc(C(=O)N2CCC(NC(=O)c3nc4ccc(OC5CCN(c6ccc(C(F)(F)F)cc6)CC5)cc4o3)CC2)cc1` [Compound 3-6, N-(1-(4-cyanobenzoyl)piperidin-4-yl)-6-(1-(4-(trifluoromethyl)phenyl)piperidin-4-yloxy)benzo[d]oxazole-2-carboxamide], the EC50 is less than 0.1 µM.

As to `O=C(c1nc2ccc(OC3CCN(c4ccc(C(F)(F)F)cc4)CC3)cc2o1)N1CC2CC1CN2Cc1ccncc1` (stereo not shown) [Compound 3-8, (5-(pyridin-4-ylmethyl)-2,5-diazabicyclo[2.2.1]heptan-2-yl)(6-(1-(4-(trifluoromethyl)phenyl)piperidin-4-yloxy)benzo[d]oxazol-2-yl)methanone], the EC50 lay within 0.1 to 1 µM.

As to `NC(=O)c1ccc(CN2CC3CC2CN3C(=O)c2nc3ccc(OC4CCN(c5ccc(C(F)(F)F)cc5)CC4)cc3o2)cc1` (stereo not shown) [Compound 3-9, 4-((5-(6-(1-(4-(trifluoromethyl)phenyl)piperidin-4-yloxy)benzo[d]oxazole-2-carbonyl)-2,5-diazabicyclo[2.2.1]heptan-2-yl)methyl)benzamide], the EC50 is 0.1 to 1 µM.

Regarding `N#Cc1ccc(CN2CC3CC2CN3C(=O)c2nc3ccc(OC4CCN(c5ccc(C(F)(F)F)cc5)CC4)cc3o2)cc1` (stereo not shown) [Compound 3-10, 4-((5-(6-(1-(4-(trifluoromethyl)phenyl)piperidin-4-yloxy)benzo[d]oxazole-2-carbonyl)-2,5-diazabicyclo[2.2.1]heptan-2-yl)methyl)benzonitrile], the EC50 was 0.1 to 1 µM.

The compound `O=C(c1ccncc1)N1CC2CC1CN2C(=O)c1nc2ccc(OC3CCN(c4ccc(C(F)(F)F)cc4)CC3)cc2o1` (stereo not shown) [Compound 3-11, (5-isonicotinoyl-2,5-diazabicyclo[2.2.1]heptan-2-yl)(6-(1-(4-(trifluoromethyl)phenyl)piperidin-4-yloxy)benzo[d]oxazol-2-yl)methanone] had an EC50 of 0.1 to 1 µM.

Regarding `N#Cc1ccc(C(=O)N2CC3CC2CN3C(=O)c2nc3ccc(OC4CCN(c5ccc(C(F)(F)F)cc5)CC4)cc3o2)cc1` (stereo not shown) [Compound 3-12, 4-(5-(6-(1-(4-(trifluoromethyl)phenyl)piperidin-4-yloxy)benzo[d]oxazole-2-carbonyl)-2,5-diazabicyclo[2.2.1]heptane-2-carbonyl)benzonitrile], the EC50 is less than 0.1 µM.

`O=C(c1ccc(F)cc1)N1CC2CC1CN2C(=O)c1nc2ccc(OC3CCN(c4ccc(C(F)(F)F)cc4)CC3)cc2o1` (stereo not shown) [Compound 3-13, (5-(4-fluorobenzoyl)-2,5-diazabicyclo[2.2.1]heptan-2-yl)(6-(1-(4-(trifluoromethyl)phenyl)piperidin-4-yloxy)benzo[d]oxazol-2-yl)methanone] gave an EC50 of less than 0.1 µM.

For the compound `CC(C)(C)OC(=O)N1CCC(NC(=O)c2nc3ccc(OC4CCN(c5ccc(C(F)(F)F)cc5)CC4)cc3s2)CC1` [Compound 3-14, tert-butyl 4-(6-(1-(4-(trifluoromethyl)phenyl)piperidin-4-yloxy)benzo[d]thiazole-2-carboxamido)piperidine-1-carboxylate], the 50% effective concentration (EC50) lay within 1 to 10 µM.

Consider `O=C(NC1CCN(Cc2ccncc2)CC1)c1nc2ccc(OC3CCN(c4ccc(C(F)(F)F)cc4)CC3)cc2s1` [Compound 3-15, N-(1-(pyridin-4-ylmethyl)piperidin-4-yl)-6-(1-(4-(trifluoromethyl)phenyl)piperidin-4-yloxy)benzo[d]thiazole-2-carboxamide], for which the EC50 was in the range of 0.1 to 1 µM.

Compound `N#Cc1ccc(CN2CCC(NC(=O)c3nc4ccc(OC5CCN(c6ccc(C(F)(F)F)cc6)CC5)cc4s3)CC2)cc1` [Compound 3-16, N-(1-(4-cyanobenzyl)piperidin-4-yl)-6-(1-(4-(trifluoromethyl)phenyl)piperidin-4-yloxy)benzo[d]thiazole-2-carboxamide] came in with a concentration for a half-maximal effect (EC50) of 0.1 to 1 µM.

With `O=C(NC1CCN(Cc2ccncc2)CC1)c1cn2ccc(OC3CCN(c4ccc(C(F)(F)F)cc4)CC3)cc2n1` [Compound 3-17, N-(1-(pyridin-4-ylmethyl)piperidin-4-yl)-7-(1-(4-(trifluoromethyl)phenyl)piperidin-4-yloxy)imidazo[1,2-a]pyridine-2-carboxamide], the EC50 is less than 0.1 µM.

`N#Cc1ccc(CN2CCC(NC(=O)c3cn4ccc(OC5CCN(c6ccc(C(F)(F)F)cc6)CC5)cc4n3)CC2)cc1` [Compound 3-18, N-(1-(4-cyanobenzyl)piperidin-4-yl)-7-(1-(4-(trifluoromethyl)phenyl)piperidin-4-yloxy)imidazo[1,2-a]pyridine-2-carboxamide] displayed a concentration giving a half-maximal response (EC50) of less than 0.1 µM.

With `CC(C)(C)OC(=O)N1CCC(NC(=O)c2cnc(OC3CCN(c4ccc(C(F)(F)F)cc4)CC3)cn2)CC1` [Compound 3-19, tert-butyl 4-(5-(1-(4-(trifluoromethyl)phenyl)piperidin-4-yloxy)pyrazine-2-carboxamido)piperidine-1-carboxylate], the EC50 lay within 1 to 10 µM.
